87 compounds from the Bradley open melting point set (2014) can be followed below.

Each structure is given as a SMILES string. “And” between values parts separate entries of the source, which are not always exact repeats. Identical values can stand only once.

The melting point is the temperature, or range, at which the solid turns liquid.

`O=[N+]([O-])/C=C/c1c(Cl)cccc1Cl` [2,6-dichloro-beta-nitrostyrene] showed a melting point of 65 °C.

Regarding `O=Cc1cc(F)c(F)c(F)c1` [3,4,5-trifluorobenzaldehyde], the melting point came to 25 °C.

`N#CC(c1ccccc1)N1CCOCC1` (stereo not drawn) [alpha-(4-morpholinyl)phenylacetonitrile] gave a melting point of 69 °C.

As to `Brc1ccc(Br)c(Br)c1` [1,2,4-tribromobenzene], the melting point was 43 °C (2×) and 44 °C.

Turning to `Cc1ccc([N+](=O)[O-])cc1` [p-nitrotoluene], the melting point stood at 54 °C.

Compound `O=[N+]([O-])c1ccccc1I` [1-iodo-2-nitrobenzene] came in with a melting point of 50 °C.

Compound `Cc1cc(C(=O)NNCc2ccccc2)no1` [isocarboxazid] gave a melting point of 106 °C.

`CC(C)C(O)C(C)(C)CO` (configuration not stated) [2,2,4-trimethyl-1,3-pentanediol]: the melting point stood at 52 °C.

The compound `O=Cc1ccccc1[N+](=O)[O-]` [2-nitrobenzaldehyde] gave a melting point of 45 °C.

Compound `NS(=O)(=O)c1cc2c(cc1C(F)(F)F)NCNS2(=O)=O` [hydroflumethiazide] returned a melting point of 272 °C.

The compound `COC(=O)C12C=CC(CC1)C1C(=O)OC(=O)C12` (configuration not stated) returned a melting point of 117 °C.

`CCC(C)C1(CC)C(=O)NC(=O)NC1=O` (configuration not stated) [secbutabarbital] returned a melting point of 166 °C.

The compound `CC(=O)N1CCN(c2ccc(OCC3COC(Cn4ccnc4)(c4ccc(Cl)cc4Cl)O3)cc2)CC1` (configuration not stated) had a melting point of 146 °C.

`COc1ccc2cc[nH]c2c1` [6-methoxyindole] had a melting point of 92 °C.

In turn, `Oc1ccc(OCc2ccccc2)cc1` [Agerite] yielded a melting point of 120 °C.

Consider `Cc1ccc(B(O)O)cc1[N+](=O)[O-]` [4-methyl-3-nitrobenzeneboronic acid], for which the melting point is 250 °C.

As for `Clc1cc(Cl)c(I)cc1Cl` [1,2,4-trichloro-5-iodobenzene], the melting point came to 104 °C.

In the case of `CCCCCCCCCCC(O)CCCCCCCCCC` [11-heneicosanol], the melting point worked out at 72 °C.

With `OC1CCCC1` [cyclopentanol], the melting point is -19 °C.

Compound `c1ccc(Cn2ccnc2)cc1` [1-benzylimidazole] came in with a melting point of 71 °C.

Take `C1CC[C@H]2CCCC[C@@H]2C1` [trans-decahydronaphthalene]: the melting point was -32 °C.

Turning to `NCCC(c1ccccc1)c1ccccc1` [3,3-diphenylpropylamine], the melting point is 27 °C.

Compound `O=[N+]([O-])c1cccc(Cl)c1` [1-chloro-3-nitrobenzene] had a melting point of 45 °C.

For the compound `C[C@H](Cc1ccc(O)c(O)c1)[C@@H](C)Cc1ccc(O)c(O)c1`, the melting point was determined as 180 °C.

Compound `CCOC(C)=O` [ethyl acetate] returned a melting point of -84 °C.

The compound `CCSC(SCC)=C1CCCC(=C(SCC)SCC)C1=C(C#N)C#N` yielded a melting point of 101 °C.

`O=c1cc(CO)occ1O` [kojic acid]: the melting point stood at 154 °C.

As to `[O-][n+]1onc2ccccc21` [benzofuroxan], the melting point amounted to 69 °C.

For the compound `O=C(O)c1cccc([N+](=O)[O-])c1` [3-Nitrobenzoic acid], the melting point worked out at 142 °C.

As for `C1CCNC1` [Pyrrolidine], the melting point is -60 °C.

Compound `O=[N+]([O-])c1cc(Cl)ccc1Cl` [2,5-dichloronitrobenzene] returned a melting point of 56 °C.

Turning to `[O-][n+]1ccc2ccc(Br)cc2c1` [7-bromoisoquinoline n-oxide], the melting point was 180 °C.

For the compound `C(=NC1CCCCC1)=NC1CCCCC1` [N,N'-dicyclohexylcarbodiimide], the melting point was 35 °C.

`O=C(O)c1ccc(O)cc1` [4-hydroxybenzoic_acid] came in with a melting point of 217 °C.

`CC(=O)Nc1ccc(Br)c(C(F)(F)F)c1` [4'-bromo-3'-(trifluoromethyl)acetanilide]: the melting point worked out at 118 °C.

The compound `O=C\1\C=C/[C@]4(/C(=C/1)CC[C@@H]2[C@@H]4[C@@H](O)C[C@@]3([C@@](O)(C(=O)CO)CC[C@@H]23)C)C` [prednisolone] yielded a melting point of 240 °C.

On to `c1ccc2c(c1)OCCOCCOCCOCCOCCO2` [benzo-18-crown-6], for which the melting point amounted to 44 °C.

In turn, `Brc1ccc(Br)cc1` [1,4-Dibromobenzene] registered a melting point of 88 °C.

For the compound `O=C1CCC2C3CCC(=O)C3C12` (configuration not stated) [octahydrocyclobuta[1,2-a:3,4-a']dicyclopentene-1,6-dione], the melting point is 67 °C.

`COc1ccc(C(=O)Cc2ccccc2)cc1OC` [1-(3,4-Dimethoxyphenyl)-2-phenylethanone] registered a melting point of 73 °C.

As to `O=C(O)c1ccccc1Br` [2-bromobenzoic acid], the melting point was found to be 149 °C.

`N#Cc1ccncc1` [4-cyanopyridine] displayed a melting point of 78 °C.

In turn, `CN(C)c1ccc(C2Nn3c(COc4ccccc4)nnc3S2)cc1` (configuration not stated) came in with a melting point of 144 °C.

`CC1=C(CC(=O)O)c2cc(F)ccc2/C1=C\c1ccc([S+](C)[O-])cc1` (configuration not stated) [Sulindac] gave a melting point of 184 °C.

Compound `Cc1cccc(C)c1O` [2,6-Dimethylphenol] registered a melting point of 49 °C.

Regarding `Cc1cccc(-c2nnn[nH]2)c1` [5-(3-methylphenyl)-1h-tetrazole], the melting point is 145 °C.

The compound `Cc1cc(C)c(Br)c(C)c1` [2-bromomesitylene] gave a melting point of 2 °C.

On to `CCOC(=O)CCC(C)C1CCC2C3C(O)C(Br)C4CC(OC(C)=O)CCC4(C)C3CC(OC(C)=O)C12C` (configuration not stated) [ethyl 3,12-bis(acetyloxy)-6-bromo-7-hydroxycholan-24-oate], for which the melting point worked out at 166 °C.

`CC(=O)OC1CCC2C3CCC4CC(CC(=O)O)CCC4(C)C3CCC12C` (configuration not stated) [[17-(acetyloxy)androstan-3-yl]acetic acid]: the melting point is 152 °C.

In turn, `CCOC(=O)Nc1ccc2c(c1)N(C(=O)CCN1CCOCC1)c1ccccc1S2` [Moricizine] gave a melting point of 156 °C.

`Oc1ccc(Cl)c(Cl)c1` [3,4-dichlorophenol] had a melting point of 66 °C.

`NCC(=O)O` [Glycine] yielded a melting point of 240 °C.

`COC(=O)c1sccc1O` [methyl 3-hydroxythiophene-2-carboxylate] came in with a melting point of 46 °C.

The compound `CCCC[C@H](NC(=O)OCc1ccccc1)C(=O)O` [N-benzyloxycarbonyl-l-norleucine] came in with a melting point of 57 °C.

Consider `C#CCCCCCCCCCCCCCCCC` [1-octadecyne], for which the melting point is 27 °C.

In the case of `Cc1ccc(B(O)O)cc1N` [3-amino-4-methylbenzeneboronic acid], the melting point stood at 250 °C.

For the compound `CN(C)[C@@H]1C(O)=C(C(N)=O)C(=O)[C@@]2(O)C(O)=C3C(=O)c4c(O)cccc4[C@@](C)(O)[C@H]3C[C@@H]12` [Tetracycline], the melting point amounted to 165 °C.

`ClC(Cl)C(Cl)Cl` [1,1,2,2-tetrachloroethane] gave a melting point of -43 °C.

`COC(=O)c1ccc(OC)c(OC)c1` [methyl_3,4-dimethoxybenzoate] came in with a melting point of 60 °C.

On to `O=c1n(CCO)c(=O)n(CCO)c(=O)n1CCO` [1,3,5-tris(2-hydroxyethyl)cyanuric acid], for which the melting point amounted to 138 °C.

In the case of `O=C(O)CCCCCCCCCCC(=O)O` [dodecanedioic acid], the melting point stood at 129 °C.

`CC=C(/C)CCC` [3-methyl-trans-2-hexene] had a melting point of -129 °C.

`Cc1ccc(C#N)cc1` [4-Methylbenzonitrile] showed a melting point of 29 °C.

`CC(=O)Nc1ccccc1` [Acetanilide] came in with a melting point of 114 °C.

As to `CCC(C)C(C)(COC(N)=O)COC(N)=O` (configuration not stated) [mebutamate], the melting point was 77 °C.

`OC(c1ccccc1)(c1ccccc1)c1ccccc1` [triphenylmethanol] came in with a melting point of 163 °C.

In turn, `C[C@]12CC[C@@H]3c4ccc(O)cc4CC[C@H]3[C@@H]1CCC2=O` [estrone] registered a melting point of 259 °C.

With `Cc1ccccc1C(=O)O` [2-Methylbenzoic acid], the melting point amounted to 108 °C.

For the compound `Brc1c(Br)c(Br)c(Br)c(Br)c1Br` [Hexabromobenzene], the melting point stood at 306 °C.

With `CC(C(=O)O)c1cccc(C(=O)c2ccccc2)c1` (configuration not stated) [Ketoprofen], the melting point came to 93 °C.

`Oc1ccccc1-c1ccno1` [2-(5-isoxazolyl)phenol] had a melting point of 185 °C.

`COc1ccc(-c2ccc(S(=O)(=O)Cl)cc2)cc1` [4'-methoxybiphenyl-4-sulfonyl chloride] registered a melting point of 103 °C.

Compound `CC1NC(C(=O)O)CC2=C3C=CCC=C3N=C21` (configuration not stated) showed a melting point of 244 °C.

With `OCc1ccncc1` [4-pyridinemethanol], the melting point came out at 54 °C.

In the case of `ClC(Br)Br` [chlorodibromomethane], the melting point was -22 °C.

`OC[C@@H](O)[C@@H](O)[C@H](O)[C@@H](O)CO` [sorbitol]: the melting point was found to be 111 °C.

Consider `Cc1ccc(S(=O)(=O)Cl)cc1[N+](=O)[O-]` [4-methyl-3-nitrobenzenesulfonyl chloride], for which the melting point was 35 °C.

For `O=C1CN=C(c2ccccc2F)c2cc(Cl)ccc2N1CC1CC1` [flutoprazepam], the melting point is 118 °C.

Regarding `Cc1nc2ccccc2c(=O)n1-c1ccccc1Cl` [mecloqualone], the melting point turned out to be 126 °C.

`CCC(C)(C)C` [2,2-Dimethylbutane] displayed a melting point of -100 °C.

For the compound `O=C(O)CSCc1ccccc1` [(benzylthio)acetic acid], the melting point was 62 °C.

For the compound `CCCCCCCCCCCBr` [1-bromoundecane], the melting point is -9 °C.

On to `CN(C)c1ccc(C=O)cc1` [p-dimethylaminobenzaldehyde], for which the melting point is 75 °C.

In turn, `C[C@@H]1CC=CC=CC=CC=C[C@H](OC2O[C@H](C)[C@@H](O)[C@H](N)[C@@H]2O)C[C@@H]2O[C@](O)(C[C@@H](O)C[C@H]3O[C@@H]3C=CC(=O)O1)C[C@H](O)[C@H]2C(=O)O` (some centres not stated) [Natamycin] had a melting point of 290 °C.

`BrC(c1ccccc1)(c1ccccc1)c1ccccc1` [bromotriphenylmethane] had a melting point of 154 °C.

The compound `NS(=O)(=O)c1ccccc1` [benzenesulfonamide] showed a melting point of 153 °C.

Consider `Cc1ccc(C)cc1` [p-xylene], for which the melting point was 13 °C.
